According to patent publication US20250206732A1, “COMPOUNDS AND METHODS FOR THE TARGETED DEGRADATION OF KRAS” (Arvinas Operations, Inc., priority 2022, published 2025):

Biological target: T1, AsPC-1 HiBiT-KRASG12D (Homo sapiens, UniProt P01116, G12D)
T1 construct: insert the HiBiT tag onto the N-terminus of one or more of the endogenous KRAS alleles; endogenous in cells; host or cells: AsPC-1 (ATCC CRL-1682), CRISPR-Cas9 knock-in clone, one tagged allele
Experiment: HiBiT degradation assay (G12D), AsPC-1 HiBiT-KRASG12D cells
Format: cell-based
Settings: 24 hours treatment; for Dmax: ASPC1, AsPC-1 HiBiT-KRASG12D cells, maximum degradation observed; for DC50: AsPC-1 HiBiT-KRASG12D cells, HiBiT luminescence
In short: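 AsPC-1 cells (homozygous G12D) carrying a CRISPR knock-in N-terminal HiBiT tag on endogenous KRAS were treated with compounds for 24 hours at 37° C, 5% CO2, in triplicate. Alamar blue viability was read first, then cells were washed and lysed with Nano-Glo HiBiT reagent for 45 minutes before luminescence reading.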

T1 sequence (P01116 1-188 isoform P01116-2 G12D): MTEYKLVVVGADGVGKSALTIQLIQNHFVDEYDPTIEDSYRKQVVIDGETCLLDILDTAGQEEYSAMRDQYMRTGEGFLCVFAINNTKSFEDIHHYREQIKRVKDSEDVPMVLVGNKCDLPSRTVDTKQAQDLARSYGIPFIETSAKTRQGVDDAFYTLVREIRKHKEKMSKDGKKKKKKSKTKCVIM

SMILES | Dmax [%] | DC50 [nM]
C#Cc1c(F)ccc2cc(O)cc(-c3ncc4c(N5CC6CCC(C5)N6)nc(OCCN5CCC(C)(COc6cc([C@H](C(=O)N7C[C@H](O)C[C@H]7C(=O)N[C@@H](C)c7ccc(-c8scnc8C)cc7)C(C)C)on6)CC5)nc4c3F)c12 [Compound 313, (2S,4R)-1-[(2R)-2-{3-[(1-{2-[(4-{3,8-diazabicyclo[3.2.1]octan-3-yl}-7-(8-ethynyl-7-fluoro-3-hydroxynaphthalen-1-yl)-8-fluoropyrido[4,3-d]pyrimidin-2-yl)oxy]ethyl}-4-methylpiperidin-4-yl)methoxy]-1,2-oxazol-5-yl}-3-methylbutanoyl]-4-hydroxy-N-[(1S)-1-[4-(4-methyl-1,3-thiazol-5-yl)phenyl]ethyl]pyrrolidine-2-carboxamide] | 80 to 100 | < 600
C#Cc1c(F)ccc2cc(O)cc(-c3ncc4c(N5CC6CCC(C5)N6)nc(OC[C@@]56CCCN5[C@H](COc5cc([C@H](C(=O)N7C[C@H](O)C[C@H]7C(=O)N[C@@H](C)c7ccc(-c8scnc8C)cc7)C(C)C)on5)CC6)nc4c3F)c12 [Compound 314, (2S,4R)-1-[(2R)-2-[3-[[(3S,8S)-8-[[4-(3,8-diazabicyclo[3.2.1]octan-3-yl)-7-(8-ethynyl-7-fluoro-3-hydroxy-1-naphthyl)-8-fluoro-pyrido[4,3-d]pyrimidin-2-yl]oxymethyl]-1,2,3,5,6,7-hexahydropyrrolizin-3-yl]methoxy]isoxazol-5-yl]-3-methyl-butanoyl]-4-hydroxy-N-[(1S)-1-[4-(4-methylthiazol-5-yl)phenyl]ethyl]pyrrolidine-2-carboxamide] | 80 to 100 | < 600
C#Cc1c(F)ccc2cc(O)cc(-c3ncc4c(N5CC6CCC(C5)N6)nc(OC[C@@]56CCCN5[C@H](COc5cc([C@@H](C(=O)N7C[C@H](O)C[C@H]7C(=O)N[C@@H](C)c7ccc(-c8scnc8C)cc7)C(C)C)on5)CC6)nc4c3F)c12 [Compound 315, (2S,4R)-1-[(2S)-2-[3-[[(3S,8S)-8-[[4-(3,8-diazabicyclo[3.2.1]octan-3-yl)-7-(8-ethynyl-7-fluoro-3-hydroxy-1-naphthyl)-8-fluoro-pyrido[4,3-d]pyrimidin-2-yl]oxymethyl]-1,2,3,5,6,7-hexahydropyrrolizin-3-yl]methoxy]isoxazol-5-yl]-3-methyl-butanoyl]-4-hydroxy-N-[(1S)-1-[4-(4-methylthiazol-5-yl)phenyl]ethyl]pyrrolidine-2-carboxamide] |  | > 3000
C#Cc1c(F)ccc2cccc(-c3ncc4c(N5CC6CCC(C5)N6)nc(OC[C@]56CCCN5[C@H](COc5cc([C@H](C(=O)N7C[C@H](O)C[C@H]7C(=O)N[C@@H](C)c7ccc(-c8scnc8C)cc7)C(C)C)on5)CC6)nc4c3F)c12 [Compound 316, (2S,4R)-1-[(2S)-2-[3-[[(3S,8R)-8-[[4-(3,8-diazabicyclo[3.2.1]octan-3-yl)-7-(8-ethynyl-7-fluoro-1-naphthyl)-8-fluoro-pyrido[4,3-d]pyrimidin-2-yl]oxymethyl]-1,2,3,5,6,7-hexahydropyrrolizin-3-yl]methoxy]isoxazol-5-yl]-3-methyl-butanoyl]-4-hydroxy-N-[(1S)-1-[4-(4-methylthiazol-5-yl)phenyl]ethyl]pyrrolidine-2-carboxamide] | 20 to 60 | < 600
C#Cc1c(F)ccc2cccc(-c3ncc4c(N5CC6CCC(C5)N6)nc(OC[C@]56CCCN5[C@H](COc5cc([C@@H](C(=O)N7C[C@H](O)C[C@H]7C(=O)N[C@@H](C)c7ccc(-c8scnc8C)cc7)C(C)C)on5)CC6)nc4c3F)c12 [Compound 317, (2S,4R)-1-[(2R)-2-[3-[[(3S,8R)-8-[[4-(3,8-diazabicyclo[3.2.1]octan-3-yl)-7-(8-ethynyl-7-fluoro-1-naphthyl)-8-fluoro-pyrido[4,3-d]pyrimidin-2-yl]oxymethyl]-1,2,3,5,6,7-hexahydropyrrolizin-3-yl]methoxy]isoxazol-5-yl]-3-methyl-butanoyl]-4-hydroxy-N-[(1S)-1-[4-(4-methylthiazol-5-yl)phenyl]ethyl]pyrrolidine-2-carboxamide] | 80 to 100 | < 600
CCc1cccc2cc(O)cc(-c3ncc4c(N5CC6CCC(C5)N6)nc(OC[C@]56CCCN5C[C@H](Oc5cc([C@H](C(=O)N7C[C@H](O)C[C@H]7C(=O)N[C@@H](C)c7ccc(-c8scnc8C)cc7)C(C)C)on5)CC6)nc4c3F)c12 [Compound 318, (2S,4R)-1-[(2R)-2-[3-[[(6R,8aR)-8a-[[4-(3,8-diazabicyclo[3.2.1]octan-3-yl)-7-(8-ethyl-3-hydroxy-1-naphthyl)-8-fluoro-pyrido[4,3-d]pyrimidin-2-yl]oxymethyl]-2,3,5,6,7,8-hexahydro-1H-indolizin-6-yl]oxy]isoxazol-5-yl]-3-methyl-butanoyl]-4-hydroxy-N-[(1S)-1-[4-(4-methylthiazol-5-yl)phenyl]ethyl]pyrrolidine-2-carboxamide] | 20 to 60 | 1000 to 3000
CCc1cccc2cc(O)cc(-c3ncc4c(N5CC6CCC(C5)N6)nc(OC[C@]56CCCN5C[C@H](Oc5cc([C@@H](C(=O)N7C[C@H](O)C[C@H]7C(=O)N[C@@H](C)c7ccc(-c8scnc8C)cc7)C(C)C)on5)CC6)nc4c3F)c12 [Compound 319, (2S,4R)-1-[(2S)-2-[3-[[(6R,8aR)-8a-[[4-(3,8-diazabicyclo[3.2.1]octan-3-yl)-7-(8-ethyl-3-hydroxy-1-naphthyl)-8-fluoro-pyrido[4,3-d]pyrimidin-2-yl]oxymethyl]-2,3,5,6,7,8-hexahydro-1H-indolizin-6-yl]oxy]isoxazol-5-yl]-3-methyl-butanoyl]-4-hydroxy-N-[(1S)-1-[4-(4-methylthiazol-5-yl)phenyl]ethyl]pyrrolidine-2-carboxamide] | 60 to 80 | 1000 to 3000
Cc1ncsc1-c1ccc([C@H](C)NC(=O)[C@@H]2C[C@@H](O)CN2C(=O)[C@H](c2cc(OC3CN(C(=O)OC[C@@H]4CC[C@@]5(COc6nc(N7CC8CCC(C7)N8)c7cnc(-c8cc(O)cc(Cl)c8C8CC8)c(F)c7n6)CCCN45)C3)no2)C(C)C)cc1 [Compound 322] | 60 to 80 | 600 to 1000
CCc1cccc2cc(O)cc(-c3ncc4c(N5CC6CCC(C5)N6)nc(OC[C@]56CCCN5[C@H](COc5cc([C@H](C(=O)N7C[C@H](O)C[C@H]7C(=O)N[C@@H](C)c7ccc(-c8scnc8C)cc7)C(C)C)on5)CC6)nc4c3F)c12 [Compound 323, (2S,4R)-1-[(2R)-2-(3-{[(3S,7aR)-7a-{[(4-{3,8-diazabicyclo[3.2.1]octan-3-yl}-7-(8-ethyl-3-hydroxynaphthalen-1-yl)-8-fluoropyrido[4,3-d]pyrimidin-2-yl)oxy]methyl}-hexahydro-1H-pyrrolizin-3-yl]methoxy}-1,2-oxazol-5-yl)-3-methylbutanoyl]-4-hydroxy-N-[(1S)-1-[4-(4-methyl-1,3-thiazol-5-yl)phenyl]ethyl]pyrrolidine-2-carboxamide] | 60 to 80 | 
CCc1cccc2cc(O)cc(-c3ncc4c(N5CC6CCC(C5)N6)nc(OC[C@]56CCCN5[C@H](COc5cc([C@@H](C(=O)N7C[C@H](O)C[C@H]7C(=O)N[C@@H](C)c7ccc(-c8scnc8C)cc7)C(C)C)on5)CC6)nc4c3F)c12 [Compound 324, (2S,4R)-1-[(2S)-2-(3-{[(3S,7aR)-7a-{[(4-{3,8-diazabicyclo[3.2.1]octan-3-yl}-7-(8-ethyl-3-hydroxynaphthalen-1-yl)-8-fluoropyrido[4,3-d]pyrimidin-2-yl)oxy]methyl}-hexahydro-1H-pyrrolizin-3-yl]methoxy}-1,2-oxazol-5-yl)-3-methylbutanoyl]-4-hydroxy-N-[(1S)-1-[4-(4-methyl-1,3-thiazol-5-yl)phenyl]ethyl]pyrrolidine-2-carboxamide] | 80 to 100 | 
CCc1cccc2cc(O)cc(-c3ncc4c(N5CC6CCC(C5)N6)nc(OC[C@@]56CCCN5[C@H](COC(=O)N5CCN(c7cc([C@H](C(=O)N8C[C@H](O)C[C@H]8C(=O)N[C@@H](C)c8ccc(-c9scnc9C)cc8)C(C)C)on7)C[C@@H]5C)CC6)nc4c3F)c12 [Compound 325, [(3S,8S)-8-[[4-(3,8-diazabicyclo[3.2.1]octan-3-yl)-7-(8-ethyl-3-hydroxy-1-naphthyl)-8-fluoro-pyrido[4,3-d]pyrimidin-2-yl]oxymethyl]-1,2,3,5,6,7-hexahydropyrrolizin-3-yl]methyl (2S)-4-[5-[(1R)-1-[(2S,4R)-4-hydroxy-2-[[(1S)-1-[4-(4-methylthiazol-5-yl)phenyl]ethyl]carbamoyl]pyrrolidine-1-carbonyl]-isobutyl]isoxazol-3-yl]-2-methyl-piperazine-1-carboxylate] | 80 to 100 | < 600
CCc1cccc2cc(O)cc(-c3ncc4c(N5CC6CCC(C5)N6)nc(OC[C@@]56CCCN5[C@H](COC(=O)N5CCN(c7cc([C@@H](C(=O)N8C[C@H](O)C[C@H]8C(=O)N[C@@H](C)c8ccc(-c9scnc9C)cc8)C(C)C)on7)C[C@@H]5C)CC6)nc4c3F)c12 [Compound 326, [(3S,8S)-8-[[4-(3,8-diazabicyclo[3.2.1]octan-3-yl)-7-(8-ethyl-3-hydroxy-1-naphthyl)-8-fluoro-pyrido[4,3-d]pyrimidin-2-yl]oxymethyl]-1,2,3,5,6,7-hexahydropyrrolizin-3-yl]methyl (2S)-4-[5-[(1S)-1-[(2S,4R)-4-hydroxy-2-[[(1S)-1-[4-(4-methylthiazol-5-yl)phenyl]ethyl]carbamoyl]pyrrolidine-1-carbonyl]-isobutyl]isoxazol-3-yl]-2-methyl-piperazine-1-carboxylate] | < 20 | < 600
